Test results reported in patent US20120232066A1, “COMPOSITIONS FOR REDUCING RISK OF ADVERSE EVENTS CAUSED BY DRUG-DRUG INTERACTIONS” (priority 2011, published 2012).

Experiments:
[1] = Oral administration of Compound AM-2 and Compound 109 to rats; amphetamine in plasma; type: in vivo, rat; conditions: suppressing Cmax and delaying Tmax
Description: Table 10 and FIG. 10 provide amphetamine exposure results for rats administered with Compound AM-2 and with or without a co-dose of trypsin inhibitor.

[2] = Oral administration of Compound KC-17 co-dosed with Compound 109 to rats; oxycodone in plasma; type: in vivo, rat; conditions: KC-17 50 mg/kg
Description: At specified time points, blood samples were drawn, harvested for plasma via centrifugation at 5,400 rpm at 4° C. for 5 min, and 100 microliters (μl) plasma transferred from each sample into a fresh tube containing 2 μl of 50% formic acid. The tubes were vortexed for 5-10 seconds, immediately placed in dry ice, and then stored in a −80° C. freezer until analysis by HPLC/MS.

[3] = Oral administration of Compound PC-1 and SBTI trypsin inhibitor to rats; hydromorphone in blood; conditions: for Cmax (ng/mL HM): hydromorphone in rat blood, PO PC-1 20 mg/kg
Description: At specified time points, blood samples were drawn, quenched into methanol, centrifuged at 14,000 rpm @ 4° C., and stored at −80° C. until analysis by high performance liquid chromatography/mass spectrometry (HPLC/MS).

## N=C(N)c1ccc2cc(OC(=O)c3ccc(N=C(N)N)cc3)ccc2c1 [Compound 109, 6-carbamimidoylnaphthalen-2-yl 4-(diaminomethyleneamino)benzoate]
[1]
  effect of Compound 109 on amphetamine release from Compound AM-2: ability to attenuate
[2]
  effect of Compound 109 on oxycodone release from Compound KC-17: attenuate release of oxycodone by prodrugs of the embodiments

## CC(=O)NC(CCCNC(=N)N)C(=O)NCCN(C)C(=O)Oc1ccc2c3c1OC1C(=O)CCC4C(C2)N(C)CCC314 (stereo not drawn) [Compound PC-1, Hydromorphone 3-(N-methyl-N-(2-N′-acetylarginylamino)) ethylcarbamate]
[3]; SBTI 0 mg/kg
  Cmax (ng/mL HM): 16.5 ± 5.3 ng/mL
[3]; SBTI 10 mg/kg
  Cmax (ng/mL HM): 8.9 ± 1.8 ng/mL
[3]; SBTI 100 mg/kg
  Cmax (ng/mL HM): 6.0 ± 4.0 ng/mL
[3]; SBTI 500 mg/kg
  Cmax (ng/mL HM): <5 ng/mL
[3]; SBTI 1000 mg/kg
  Cmax (ng/mL HM): <5 ng/mL

B1: SBTI: trypsin inhibitor from Glycine max (soybean) (Catalog No. 93620, ~10,000 units per mg, Sigma-Aldrich) (protein, UniProt P01070 25-205, looked up)
Trypsin inhibitor A: DFVLDNEGNPLENGGTYYILSDITAFGGIRAAPTGNERCPLTVVQSRNELDKGIGTIISSPYRIRFIAEGHPLSLKFDSFAVIMLCVGIPTEWSVVEDLPEGPAVKIGENKDAMDGWFRLERVSDDEFNNYKLVFCPQQAEDDKCGDIGISIDHDDGTRRLVVSKNKPLVVQFQKLDKESL
[3]; rats PO, PC-1 20 mg/kg and 10, 100, 500 or 1000 mg/kg SBTI
  effect of SBTI on hydromorphone release from Compound PC-1 into blood: suppresses Cmax and delays Tmax
[3]; rats PO, PC-1 20 mg/kg, at higher SBTI concentrations
  attenuation of Compound PC-1's ability to release hydromorphone: approximately 100%
